# In patent US9732063B2, “Kinase inhibitors” (RESPIVERT LIMITED, priority 2012, dated 2017):
# Like-named read-outs stand apart in the source and are kept apart here.
# Tests used:
# [1] = molecular target: Syk (Homo sapiens (Human), UniProt P43405); test: Syk enzyme inhibition (Z-LYTE FRET); assay type: biochemical
# Protocol: (§1) The enzyme inhibitory activities of compounds disclosed herein are determined by FRET using synthetic peptides labelled with both donor and acceptor fluorophores (Z-LYTE, Invitrogen Ltd., Paisley, UK).
# (§2) The relevant enzyme (3000 ng/mL or 2000 ng/mL respectively, 2.5 μL) is incubated with the test compound (either 4 μg/mL, 0.4 μg/mL, 0.04 μg/mL, or 0.004 μg/mL, 2.5 μL each) for 2 hr at RT. The FRET peptides (8 μM, 2.5 μL), and appropriate ATP solutions (2.5 μL, 800 μM for c-Src, and 60 μM ATP for Syk) are then added to the enzymes/compound mixtures and incubated for 1 hr. Development reagent (protease, 5 μL) is added for 1 hr prior to detection in a fluorescence microplate reader (Varioskan® Flash, ThermoFisher Scientific).
# (§3) In all cases, the site-specific protease cleaves non-phosphorylated peptide only and eliminates the FRET signal. Phosphorylation levels of each reaction are calculated using the ratio of coumarin emission (donor) over fluorescein emission (acceptor), for which high ratios indicate high phosphorylation and low ratios indicate low phosphorylation levels.
# [2] = tested on: PBMCs; test: LPS-induced TNFα/IL-8 release in PBMC cells; assay type: cell-based; conditions: Homo sapiens, read-out: IC50 Values for Inhibition of Cytokine Release PBMCs IL-8
# Protocol: Peripheral blood mononuclear cells (PBMCs) from healthy subjects are separated from whole blood using a density gradient (Lymphoprep, Axis-Shield Healthcare). The PBMCs are seeded in 96 well plates and treated with compounds at the desired concentration for 2 hours before addition of 1 ng/mL LPS (Escherichia Coli O111:B4 from Sigma Aldrich) for 24 hours under normal tissue culture conditions (37° C., 5% CO2). The supernatant is harvested for determination of IL-8 and TN Fa concentrations by sandwich ELISA (Duo-set, R&D systems) and read on the fluorescence microplate reader (Varioskan® Flash, ThermoFisher Scientific).
# [3] = molecular target: c-Src (Homo sapiens (Human), UniProt P12931); test: c-Src enzyme inhibition (Z-LYTE FRET); assay type: biochemical
# Protocol: as §1, §2, §3
# [4] = molecular target: GSK3α (Homo sapiens (Human), UniProt P49840); test: GSK 3α enzyme inhibition (Z-LYTE FRET, Method 2); assay type: biochemical
# Protocol: as §1
# The inhibitory activities of compounds of the invention against the GSK 3α enzyme isoform (Invitrogen), are evaluated by determining the level of activation/phosphorylation of the target peptide. The GSK3-α protein (500 ng/mL, 2.5 μL) is mixed with the test compound (2.5 μL at either 4 μg/mL, 0.4 μg/mL, 0.04 μg/mL, or 0.004 μg/mL) for 2 hr at RT. The FRET peptide (8 μM, 2.5 μL), which is a phosphorylation target for GSK3α, and ATP (40 μM, 2.5 μL) are then added to the enzyme/compound mixture and the resulting mixture incubated for 1 hr. Development reagent (protease, 5 μL) is added for 1 hr prior to detection in a fluorescence microplate reader (Varioskan® Flash, ThermoFisher Scientific).
# as §3
# [5] = tested on: PBMCs; test: IL-2 and IFN gamma release in CD3/CD28 stimulated PBMC cells; assay type: cell-based; conditions: Homo sapiens
# Protocol: PBMCs from healthy subjects are separated from whole blood using a density gradient (Lymphoprep, Axis-Shield Healthcare). Cells are added to a 96 well plate pre-coated with a mixture of CD3/CD38 monoclonal antibodies (0.3 μg/mL eBioscience and 3 μg/mL BD Pharmingen respectively). Compound at the desired concentration is then added to the wells and the plate left for 3 days under normal tissue culture conditions. Supernatants are harvested and IL-2 and IFN gamma release determined by Sandwich ELISA (Duo-set, R&D System). The IC50 is determined from the dose response curve.
# [6] = molecular target: p38 MAPKα (Homo sapiens (Human), UniProt Q16539); test: p38 MAPKα enzyme inhibition (Z-LYTE FRET, Method 2); assay type: biochemical
# Protocol: as §1
# The inhibitory activities of test compounds against the p38 MAPKα isoform (MAPK14: Invitrogen), are evaluated indirectly by determining the level of activation/phosphorylation of the down-stream molecule, MAPKAP-K2. The p38 MAPKα protein (80 ng/mL, 2.5 μL) is mixed with the test compound (2.5 μL of either 4 μg/mL, 0.4 μg/mL, 0.04 μg/mL or 0.004 μg/mL) for 2 hr at RT. […] The mixture is incubated for 1 hr at RT. Development reagent (protease, 5 μL) is added for 1 hr prior to detection in a fluorescence microplate reader (Varioskan® Flash, ThermoFisher Scientific).
# as §3
# [7] = tested on: d-U937 cells; test: LPS-induced TNFα/IL-8 release in d-U937 cells; assay type: cell-based; conditions: Homo sapiens
# Protocol: Cells are pre-incubated with final concentrations of test compound for 2 hr and are then stimulated with 0.1 μg/mL of LPS (from E. coli: O111:B4, Sigma) for 4 hr. The supernatant is collected for determination of TNFα and IL-8 concentrations by sandwich ELISA (Duo-set, R&D systems). […] The relative 50% effective concentration (REC50) is determined from the resultant concentration-response curve. The inhibition of IL-8 production is calculated at each concentration of test compound by comparison with vehicle control.
# [8] = read-out: IC50 Values for Inhibition of Cytokine Release PBMCs IFNγ
# [9] = read-out: IC50 Values for Inhibition of Cytokine Release PBMCs IL-2
# [10] = dU937, read-out: IC50 Values for Inhibition of Cytokine Release dU937 cells IL-8
# [11] = dU937, read-out: IC50 Values for Inhibition of Cytokine Release dU937 cells TNFα
# p38 MAPKα, sequence (Q16539 whole entry): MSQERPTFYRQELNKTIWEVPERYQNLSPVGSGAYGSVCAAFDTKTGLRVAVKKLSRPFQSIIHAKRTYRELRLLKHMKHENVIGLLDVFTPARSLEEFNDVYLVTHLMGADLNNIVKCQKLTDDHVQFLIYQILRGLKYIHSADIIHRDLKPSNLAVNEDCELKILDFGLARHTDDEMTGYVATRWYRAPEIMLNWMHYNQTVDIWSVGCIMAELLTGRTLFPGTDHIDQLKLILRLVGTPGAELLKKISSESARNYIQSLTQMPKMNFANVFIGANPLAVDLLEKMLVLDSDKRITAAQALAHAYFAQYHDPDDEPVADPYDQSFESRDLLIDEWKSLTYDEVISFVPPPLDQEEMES
# c-Src, sequence (P12931 whole entry, looked up): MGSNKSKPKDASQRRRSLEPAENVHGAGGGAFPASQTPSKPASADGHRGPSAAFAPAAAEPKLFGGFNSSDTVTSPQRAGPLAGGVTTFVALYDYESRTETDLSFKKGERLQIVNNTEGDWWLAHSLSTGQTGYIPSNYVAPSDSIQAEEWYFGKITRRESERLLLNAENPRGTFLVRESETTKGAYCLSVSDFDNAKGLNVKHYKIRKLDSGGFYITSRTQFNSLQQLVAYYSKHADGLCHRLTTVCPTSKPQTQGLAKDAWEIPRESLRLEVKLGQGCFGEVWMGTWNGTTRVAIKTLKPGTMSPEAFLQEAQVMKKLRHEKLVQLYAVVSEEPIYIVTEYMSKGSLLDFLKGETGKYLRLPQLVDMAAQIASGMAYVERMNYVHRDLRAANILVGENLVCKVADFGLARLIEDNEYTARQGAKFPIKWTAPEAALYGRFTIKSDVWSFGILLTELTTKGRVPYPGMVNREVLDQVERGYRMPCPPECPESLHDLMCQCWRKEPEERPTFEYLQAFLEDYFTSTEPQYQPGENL
# GSK3α, sequence (P49840 whole entry): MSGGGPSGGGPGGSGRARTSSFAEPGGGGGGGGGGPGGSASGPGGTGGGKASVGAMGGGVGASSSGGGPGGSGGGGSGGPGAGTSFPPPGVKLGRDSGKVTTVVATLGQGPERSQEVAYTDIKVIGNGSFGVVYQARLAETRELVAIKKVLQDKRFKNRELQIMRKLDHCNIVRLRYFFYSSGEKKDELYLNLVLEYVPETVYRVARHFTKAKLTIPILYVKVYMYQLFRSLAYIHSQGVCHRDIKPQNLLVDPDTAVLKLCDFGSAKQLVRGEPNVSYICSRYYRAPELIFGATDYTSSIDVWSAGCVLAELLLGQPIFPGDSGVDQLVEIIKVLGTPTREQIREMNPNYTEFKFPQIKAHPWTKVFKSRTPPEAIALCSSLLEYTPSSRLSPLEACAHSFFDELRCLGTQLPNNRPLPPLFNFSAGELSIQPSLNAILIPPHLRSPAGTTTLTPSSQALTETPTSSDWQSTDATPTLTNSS
Structure (SMILES),IC50 [1] [nM],IC50 [2] [nM],IC50 [3] [nM],IC50 [4] [nM],"IC50 [5, 8] [nM]","IC50 [5, 9] [nM]",IC50 [6] [nM],"IC50 [7, 10] [nM]","IC50 [7, 11] [nM]"
"COc1cc(Nc2nccc(Oc3ccc(NC(=O)Nc4cc(C(C)(C)C)nn4-c4ccc(C)cc4)c4ccccc34)n2)cc(SCCCN2CCOCC2)c1 [Example 42, 1-(3-(tert-Butyl)-1-(p-tolyl)-1H-pyrazol-5-yl)-3-(4-((2-((3-methoxy-5-((3-morpholinopropyl)-thio)phenyl)amino)pyrimidin-4-yl)oxy)naphthalen-1-yl)urea]",51,3.6,28,1930,1,58.5,291,–,–
"COc1cc(Nc2nccc(Oc3ccc(NC(=O)Nc4cc(C(C)C)nn4-c4ccc(C)cc4)c(Cl)c3Cl)n2)cc(OCCN2CCOCC2)c1 [Example 21, 1-(2,3-Dichloro-4-((2-((3-methoxy-5-(2-morpholinoethoxyl)phenyl)amino)pyrimidin-4-yl)-oxy)phenyl)-3-(3-isopropyl-1-(p-tolyl)-1H-pyrazol-5-yl)urea]",72,1.6,61,–,1.9,10.7,342,1.6,1.1
"COc1cc(Nc2nccc(Oc3ccc(NC(=O)Nc4cc(C(C)C)nn4-c4ccc(C)cc4)c4ccccc34)n2)cc(OCCOCCOCCO)c1 [Example 20, 1-(4-((2-((3-(2-(2-(2-Hydroxyethoxy)ethoxy)ethoxy)-5-methoxyphenyl)amino)pyrimidin-4-yl)oxy)naphthalen-1-yl)-3-(3-isopropyl-1-(P-tolyl)-1H-pyrazol-5-yl)urea]",8,1.5,8,–,–,80.8,26,–,1.6
"COc1cc(Nc2nccc(Oc3ccc(NC(=O)Nc4cc(C(C)(C)C)nn4-c4ccc(C)cc4)c4ccccc34)n2)cc(OCCOCCOCCN(C)C)c1 [Example 57, 1-(3-(tert-Butyl)-1-(p-tolyl)-1H-pyrazol-5-yl)-3-(4-((2-((3-(2-(2-(2-(dimethylamino)ethoxy)ethoxy)ethoxy)-5-methoxyphenyl)amino)pyrimidin-4-yl)oxy)naphthalen-1-yl)urea]",8,0.9,7,1940,1.4,14.6,–,–,–
"COc1cc(Nc2nccc(Oc3ccc(NC(=O)Nc4cc(C(C)C)nn4-c4ccc(C)cc4)c4ccccc34)n2)cc(OCCN2CCOCC2)c1 [Example 17, 1-(3-Isopropyl-1-(P-tolyl)-1H-pyrazol-5-yl)-3-(4-((2-((3-methoxy-5-(2-morpholinoethoxy)-phenyl)amino)pyrimidin-4-yl)oxy)naphthalen-1-yl)urea]",> 537,1.1,> 383,2670,–,20.3,> 280,–,–
"COCCOCCOc1cc(Nc2nccc(Oc3ccc(NC(=O)Nc4cc(C(C)(C)C)nn4-c4ccc(C)cc4)c4ccccc34)n2)cc(OC)c1 [Example 60, 1-(3-(tert-Butyl)-1-(p-tolyl)-1H-pyrazol-5-yl)-3-(4-((2-((3-methoxy-5-(2-(2-methoxyethoxy)ethoxy)phenyl)amino)pyrimidin-4-yl)oxy)naphthalen-1-yl)urea]",30,2.2,17,> 10000,3,72.6,–,–,–
"COCCOCCOCCOCCOCCOCCOCCOc1cc(Nc2nccc(Oc3ccc(NC(=O)Nc4cc(C(C)C)nn4-c4ccc(C)cc4)c4ccccc34)n2)cc(OC)c1 [Example 32, 1-(4-((2-((3-(2,5,8,11,14,17,20-Heptaoxadocosan-22-yloxy)-5-methoxyphenyl)amino)-pyrimidin-4-yl)oxy)naphthalen-1-yl)-3-(3-isopropyl-1-(p-tolyl)-1H-pyrazol-5-yl)urea]",7,1.4,3,4690,–,–,11,–,–
"COCCOCCOCCOCCOc1cc(Nc2nccc(Oc3ccc(NC(=O)Nc4cc(C(C)C)nn4-c4ccc(C)cc4)c4ccccc34)n2)cc(OC)c1 [Example 29, 1-(4-((2-((3-(2,5,8,11-Tetraoxatridecan-13-yloxy)-5-methoxyphenyl)amino)pyrimidin-4-yl)oxy)naphthalen-1-yl)-3-(3-isopropyl-1-(p-tolyl)-1H-pyrazol-5-yl)urea]",16,2.5,6,> 10000,6.6,74.1,30,–,–
"COc1ccc(-n2nc(C(C)(C)C)cc2NC(=O)Nc2ccc(Oc3ccnc(Nc4cc(OC)cc(S(=O)(=O)C5CC5)c4)n3)c3ccccc23)cc1 [Example 70, 1-(3-(tert-Butyl)-1-(4-methoxyphenyl)-1H-pyrazol-5-yl)-3-(4-((2-((3-(cyclopropylsulfonyl)-5-methoxyphenyl)amino)pyrimidin-4-yl)oxy)naphthalen-1-yl)urea]",62,0.9,–,3350,1.4,73.5,300,1.9,1.1
"COc1cc(Nc2nccc(Oc3ccc(NC(=O)Nc4cc(C(C)C)nn4-c4ccc(C)cc4)c(Cl)c3Cl)n2)cc(S(=O)(=O)C2CC2)c1 [Example 23, 1-(2,3-Dichloro-4-((2-((3-(cyclopropylsulfonyl)-5-methoxyphenyl)amino)pyrimidin-4-yl)-oxy)phenyl)-3-(3-isopropyl-1-(p-tolyl)-1H-pyrazol-5-yl)urea]",289,2.6,53,1400,–,–,–,–,–
"COCCOCCOCCOCCOCCOc1cc(Nc2nccc(Oc3ccc(NC(=O)Nc4cc(C(C)C)nn4-c4ccc(C)cc4)c4ccccc34)n2)cc(OC)c1 [Example 30, 1-(4-((2-((3-(2,5,8,11,14-Pentaoxahexadecan-16-yloxy)-5-methoxyphenyl)amino)-pyrimidin-4-yl)oxy)naphthalen-1-yl)-3-(3-isopropyl-1-(p-tolyl)-1H-pyrazol-5-yl)urea]",12,2.1,4,7230,15.2,27.3,32,–,–
"COc1cc(Nc2nccc(Oc3ccc(NC(=O)Nc4cc(C(C)(C)C)nn4-c4ccc(C)cc4)c4ccccc34)n2)cc(OCCN2CCOCC2)c1 [Example 45, 1-(3-(tert-Butyl)-1-(P-tolyl)-1H-pyrazol-5-yl)-3-(4-((2-((3-methoxy-5-(2-morpholinoethoxy)-phenyl)amino)pyrimidin-4-yl)oxy)naphthalen-1-yl)urea]",15,3.2,12,1490,2.2,73.8,144,–,–
